# In ChEMBL document CHEMBL3351862, “Coumarin hybrids as novel therapeutic agents” (Bioorg Med Chem, 2014):
# Assays:
# Staphylococcus aureus = test: Antimicrobial activity against methicillin-resistant Staphylococcus aureus; assay type: functional
# KB = test: Anticancer activity against human KB cells; assay type: functional, cell-based
# [1] = tested on: Human immunodeficiency virus; test: Antiviral activity against Human immunodeficiency virus; assay type: functional, organism-based; settings: Human immunodeficiency virus 1
# SK-OV-3 = test: Growth inhibition of human SKOV3 cells at 50 uM; assay type: functional; settings: read-out: GI
# CCRF-CEM = test: Growth inhibition of human CCRF-CEM cells at 50 uM; assay type: functional; settings: read-out: GI
# MCF7 = test: Growth inhibition of human MCF7 cells at 50 uM; assay type: functional; settings: read-out: GI
# [2] = molecular target: Proto-oncogene tyrosine-protein kinase Src (Homo sapiens, UniProt P12931); test: Inhibition of Src kinase (unknown origin)
# Proto-oncogene tyrosine-protein kinase Src, sequence (P12931 2-536 limits assumed): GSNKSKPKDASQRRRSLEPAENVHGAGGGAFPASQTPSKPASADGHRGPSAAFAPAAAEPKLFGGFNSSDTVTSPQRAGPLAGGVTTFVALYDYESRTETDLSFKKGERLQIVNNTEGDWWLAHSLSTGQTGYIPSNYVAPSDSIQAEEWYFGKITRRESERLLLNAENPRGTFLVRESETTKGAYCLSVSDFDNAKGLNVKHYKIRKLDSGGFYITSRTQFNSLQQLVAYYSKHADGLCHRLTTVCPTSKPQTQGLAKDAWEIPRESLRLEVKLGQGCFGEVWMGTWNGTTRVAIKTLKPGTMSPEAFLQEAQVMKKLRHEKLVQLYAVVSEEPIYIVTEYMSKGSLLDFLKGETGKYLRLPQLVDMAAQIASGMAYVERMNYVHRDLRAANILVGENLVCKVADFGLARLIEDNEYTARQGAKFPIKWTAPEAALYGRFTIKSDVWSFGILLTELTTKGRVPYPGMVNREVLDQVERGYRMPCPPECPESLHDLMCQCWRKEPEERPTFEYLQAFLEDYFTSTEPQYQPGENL
# Cholinesterase [3] = molecular target: T1, Cholinesterase (Homo sapiens, UniProt P06276); test: Inhibition of BuChE (unknown origin)
# T1 sequence (P06276 whole entry): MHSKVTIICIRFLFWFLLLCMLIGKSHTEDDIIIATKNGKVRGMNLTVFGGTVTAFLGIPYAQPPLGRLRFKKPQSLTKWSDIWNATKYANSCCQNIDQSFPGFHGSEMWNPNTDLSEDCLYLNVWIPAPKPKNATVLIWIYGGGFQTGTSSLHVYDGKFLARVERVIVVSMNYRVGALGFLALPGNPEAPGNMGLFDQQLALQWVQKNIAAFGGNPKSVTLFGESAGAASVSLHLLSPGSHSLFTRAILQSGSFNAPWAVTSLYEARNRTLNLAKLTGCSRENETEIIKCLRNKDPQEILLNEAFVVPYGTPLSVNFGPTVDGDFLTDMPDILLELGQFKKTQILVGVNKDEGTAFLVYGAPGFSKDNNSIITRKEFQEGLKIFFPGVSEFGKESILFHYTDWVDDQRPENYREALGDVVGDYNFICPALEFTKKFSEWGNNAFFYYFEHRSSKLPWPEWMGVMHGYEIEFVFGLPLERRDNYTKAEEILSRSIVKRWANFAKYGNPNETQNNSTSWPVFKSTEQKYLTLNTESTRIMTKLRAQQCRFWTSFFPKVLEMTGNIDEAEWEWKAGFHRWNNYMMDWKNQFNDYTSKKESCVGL
# Cholinesterase [4] = molecular target: T1, Cholinesterase; test: Ratio of galamthamine IC50 to compound IC50 for BuChE (unknown origin)
# Acetylcholinesterase = Acetylcholinesterase (Homo sapiens, UniProt P22303); test: Inhibition of AChE (unknown origin)
# Acetylcholinesterase, sequence (P22303 whole entry): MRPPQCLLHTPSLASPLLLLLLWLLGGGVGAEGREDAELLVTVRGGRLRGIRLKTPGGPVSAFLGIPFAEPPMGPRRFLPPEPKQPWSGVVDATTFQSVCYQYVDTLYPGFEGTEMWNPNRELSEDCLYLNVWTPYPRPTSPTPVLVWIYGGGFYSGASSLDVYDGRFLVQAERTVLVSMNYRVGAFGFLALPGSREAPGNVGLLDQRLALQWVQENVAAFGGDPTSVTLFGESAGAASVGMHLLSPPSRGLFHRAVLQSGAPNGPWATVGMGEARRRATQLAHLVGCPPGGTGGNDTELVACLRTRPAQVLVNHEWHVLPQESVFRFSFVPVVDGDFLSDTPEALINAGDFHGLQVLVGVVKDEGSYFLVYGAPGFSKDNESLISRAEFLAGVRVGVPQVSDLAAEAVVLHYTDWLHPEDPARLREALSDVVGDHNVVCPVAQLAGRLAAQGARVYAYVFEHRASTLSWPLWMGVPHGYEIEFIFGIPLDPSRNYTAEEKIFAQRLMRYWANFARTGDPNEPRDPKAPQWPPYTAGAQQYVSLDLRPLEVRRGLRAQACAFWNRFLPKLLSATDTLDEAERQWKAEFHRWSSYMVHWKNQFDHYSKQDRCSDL
# Platelet = test: Inhibition of platelet (unknown origin) aggregation; assay type: functional, cell-based
# [5] = tested on: Human immunodeficiency virus 1; test: Antiviral activity against Human immunodeficiency virus 1 3B; assay type: functional, organism-based
# [6] = tested on: Human immunodeficiency virus 2; test: Antiviral activity against Human immunodeficiency virus 2 ROD; assay type: functional, organism-based; settings: Human immunodeficiency virus 2, ISOLATE ROD
# [7] = tested on: Human immunodeficiency virus 1; test: Antiviral activity against Human immunodeficiency virus 1 harboring reverse transcriptase K103N/Y181C double mutant; assay type: functional, organism-based
structure (smiles),measurement,setting,value
Cc1cc(=O)oc2cc(OCc3cn(Cc4cc(=O)oc5ccc(Cl)cc45)nn3)ccc12,MIC,Staphylococcus aureus,6.25 µg/mL
COc1cc(OC)cc(-c2cc3ccc(OC(C)=O)c(OC(C)=O)c3oc2=O)c1,IC50,KB,5180 µM
O=c1oc2ccccc2cc1CSc1nc2cccnc2[nH]1,EC50,[1],6.8 µM
O=c1oc2ccccc2cc1CSc1nc2ccccc2o1,EC50,[1],12 µM
O=c1oc2ccccc2cc1CSc1nc2cncnc2[nH]1,EC50,[1],2 µM
COc1ccc(/C=C/C(=O)c2c(O)ccc3c(C)cc(=O)oc23)cc1O,inhibition of growth at 50 µM,SK-OV-3,63%
same,inhibition of growth at 50 µM,CCRF-CEM,50%
same,inhibition of growth at 50 µM,MCF7,43%
same,IC50,[2],14.5 µM
Cc1cc(=O)oc2cc(OCCCCCCCN3CCN(CC(=O)Nc4c5c(nc6ccccc46)CCCC5)CC3)ccc12,IC50,Cholinesterase [3],0.099 µM
same,Ratio IC50,Cholinesterase [4],128
O=c1oc2ccccc2c(O)c1-c1csc(Nc2cccc([N+](=O)[O-])c2)n1,MIC,Staphylococcus aureus,31.2 µg/mL
Cc1cc(=O)oc2cc(OCCN3CCN(CC(=O)Nc4c5c(nc6ccccc46)CCCC5)CC3)ccc12,IC50,Acetylcholinesterase,0.092 µM
O=c1oc2ccc(O)cc2cc1-c1cc(O)cc(O)c1,IC50,Platelet,10.6 µM
CCOC(=O)CNc1nc(Nc2ccc(C)cc2)nc(OCc2cc3ccccc3oc2=O)n1,IC50,[5],1 µg/mL
same,IC50,[6],1 µg/mL
same,IC50,[7],1 µg/mL
